According to patent publication US20110178050A1, “USE OF CYCLOLIGNANS FOR THE TREATMENT OF A HYPERACTIVE IMMUNE SYSTEM” (Axelar AB, priority 2008, published 2011):
Values joined by “and” are separate entries in the source; they are usually repeats but may differ in a detail not shown here. Identical values can stand only once.

Key:
[1] = system: mice; assay: Systemic toxicity of trans and cis isomers of cyclolignans in mice; conditions: nude mice; for Survival (in words) / Toxic signs (in words): 28 mg/kg/d intraperitoneally daily for 5 days; for No. of surviving mice/No. of treated mice: 28 mg/kg/d intraperitoneally daily
Procedure: The experiment was carried out to determine the significance of the stereochemistry of cyclolignans for their general toxicity by investigating systemic toxic effects of trans and cis isomers of cyclolignans in mice. Five-week old pathogen-free nude mice (nu/nu) were used and housed within plastic isolators in a sterile facility. Experimental treatments with podophyllotoxin, deoxypodophyllotoxin, picropodophyllin and deoxypicropodophyllin were performed by injecting each compound dissolved in 10 microL of a mixture of DMSO and saline intraperitoneally daily for 5 days. The dose injected once daily was 28 mg/kg/d and 6 mice were used for each drug. Control mice were treated with the vehicle only.
The mice were checked daily for signs of discomfort, diseases and weight loss.

[2] = system: blood lymphocytes; assay: Effect of seven-day treatment on blood lymphocytes in mice; format: in vivo; conditions: 20 mg/kg/12 h intraperitoneally, 7 days
Procedure: In this experiment, healthy 20-gram mice were treated with picropodophyllin by intraperitoneal injections twice daily, the dose being 20 mg/kg/12 h using DMSO/sunflower oil, 9:1, as vehicle. The control group was treated with the vehicle only (totally per day: 20 μL DMSO/oil). Each group included 3 mice. After treatment for 7 days, the mice were sacrificed and blood samples were taken. The number of blood cells in the samples was counted using an Advia 120 Hematology system from Bayer AB (Diagnostica).

[3] = system: blood lymphocytes; assay: Effect of two-week treatment on blood lymphocytes in rats; format: in vivo, rats (Sprague-Dawley); conditions: 20 mg/kg/12 h intraperitoneally, 14 days
Procedure: In this experiment, healthy 200-grams rats (Sprague-Dawley) were treated with picropodophyllin by intraperitoneal injections twice daily, the dose being 20 mg/kg/12 h, using DMSO/sunflower oil, 9:1, as vehicle. The control group was treated with the vehicle only (totally per day: 200 μL DMSO). Each group included 5 rats. After treatment for 14 days, the rats were sacrificed and blood samples were taken. The number of blood cells in the samples was counted using an Advia 120 Hematology system from Bayer AB (Diagnostica).

[4] = system: helper T lymphocytes; assay: Activation of helper T lymphocytes in human blood (FACS, CD4/CD69); format: cell-based; conditions: 30 min
Procedure: (§1) The effects of picropodophyllin and deoxypicropodophyllin on the activation of subgroups of lymphocytes in human blood were determined by flow cytometry (FACS). Lymphocytes from human peripheral blood were purified by ficoll-hypaque (Pharmacia, Amersham) and then distributed in FACS tubes at 500,000 cells in 0.5 mL per tube. Cells were kept in RPMI medium (Life technologies) supplemented with 10% bovine serum […] (BGS; Sigma), 1% penicillin-streptomycin (Sigma) and 1% glutamine (Sigma). The cells were incubated for 30 min at room temperature in the absence (control lymphocytes) or presence of picropodophyllin and deoxypicropodophyllin at 0.1 and 2.5 microM concentrations. After washing, the cells were stained 15 min for the surface molecules CD4, CD8 and CD69. CD4 and CD8 are expressed by two subsets of T lymphocytes, i.e. helper T cells and cytotoxic T cells, respectively, and CD69 is a lymphocyte activation marker. The staining was performed with the following fluorophore conjugated antibodies: anti-CD4PB; anti-CD8APC; anti-CD69APCCy7 (Beckton Dickinson). The cells were then washed with PBS containing 2% FCS and 0.05% NaN3 (FACS buffer) and then stained with […] (PI)/FITC Annexin V (Beckton Dickinson) to determine apoptosis of cells, and after incubation for another 15 min and washing, the cells were analysed by flow cytometry (FACSCalibur; Beckton Dickinson). Data were evaluated using the Cellquest computer software (Beckton Dickinson).

[5] = system: cytotoxic T lymphocytes; assay: Activation of cytotoxic T lymphocytes in human blood (FACS, CD8/CD69); format: cell-based; conditions: for CD8, percent cytotoxic T cells of total cells (events) / CD8/CD69, percent activated cytotoxic T cells of total cytotoxic T cells: 30 min; for Effect on number of activated cytotoxic T lymphocytes (CD8/CD69), in words: 0.1 and 2.5 microM
Procedure: as §1

[6] = system: lymphocytes from human peripheral blood; assay: Apoptosis of human blood lymphocytes (PI/Annexin V, FACS); format: cell-based; conditions: 30 min
Procedure: as §1

[7] = system: human T lymphocytes; assay: 3H-thymidine incorporation, Concanavalin A stimulated proliferation of lymphocytes from patients; format: cell-based; conditions: for 3H-thymidine in cyclolignan-treated lymphocytes (% of 3H-thymidine in control lymphocytes): 2.5 microM, Con A three days, 18 h incorporation; for Proliferation of peripheral blood T lymphocytes, in words: lymphocytes of patients with autoimmune diseases
Procedure: The effects of picropodophyllin and deoxypicropodophyllin on human T lymphocyte function, i.e. the proliferation capacity of human T lymphocytes in response to an antigen/mitogen, were measured using a time course tritium labelled thymidine incorporation assay. Lymphocytes from peripheral blood of patients were purified by ficoll-hypaque (Pharmacia, Amersham) and were distributed in 96 well plates at 100,000 cells per well, and all samples were in triplicates. Cells were kept in RPMI 1640 medium (Life technologies) supplemented with 10% human serum (Sigma), 100 units/mL penicillin (Sigma), 100 microg/mL streptomycin (Sigma) and 2 mM L-glutamine (Sigma). Proliferation of lymphocytes was stimulated with the T lymphocyte mitogen Concanavalin A (Con A) 10 microg/mL (Sigma). After three days incubation with Con A, with and without the cyclolignans, 1 microCi ^3H-thymidine (Amersham) was added to each well, and after another eighteen hours cells were harvested and washed, and the amount of ^3H-thymidine incorporated into newly synthesized DNA determined by scintillation counting.

[8] = MS (multiple sclerosis) patients
[9] = RA (rheumatoid arthritis) patients
[10] = UC (ulcerative colitis) patients

SMILES | Survival (in words) [1] | Toxic signs (in words) [1] | No. of surviving mice/No. of treated mice ([1]; Day 1) | No. of surviving mice/No. of treated mice ([1]; Day 2) | No. of surviving mice/No. of treated mice ([1]; Day 3) | No. of surviving mice/No. of treated mice ([1]; Day 4) | No. of surviving mice/No. of treated mice ([1]; Day 5) | CD4, percent helper T cells of total cells (events) ([4]; 0.1 μM) [%] | CD4/CD69, percent activated helper T cells of total helper T cells ([4]; 0.1 μM) [%] | CD4, percent helper T cells of total cells (events) ([4]; 2.5 μM) [%] | CD4/CD69, percent activated helper T cells of total helper T cells ([4]; 2.5 μM) [%] | CD8, percent cytotoxic T cells of total cells (events) ([5]; 0.1 μM) [%] | CD8/CD69, percent activated cytotoxic T cells of total cytotoxic T cells ([5]; 0.1 μM) [%] | CD8, percent cytotoxic T cells of total cells (events) ([5]; 2.5 μM) [%] | CD8/CD69, percent activated cytotoxic T cells of total cytotoxic T cells ([5]; 2.5 μM) [%] | Effect on number of activated cytotoxic T lymphocytes (CD8/CD69), in words [5] | ANNEXIN V, percent of total cells ([6]; 0.1 μM) [%] | PI ANNEXIN V, percent of total cells ([6]; 0.1 μM) [%] | PI, percent of total cells ([6]; 0.1 μM) [%] | ANNEXIN V, percent of total cells ([6]; 2.5 μM) [%] | further results
COc1cc([C@@H]2c3cc4c(cc3[C@H](O)[C@H]3COC(=O)[C@H]23)OCO4)cc(OC)c1OC [Podophyllotoxin, reference compound] | on the second day all of the animals were dead | became quickly sick | 2/6 | 0/6 | 0/6 | 0/6 | 0/6 |  |  |  |  |  |  |  |  |  |  |  |  |  | 
COc1cc([C@@H]2c3cc4c(cc3[C@H](O)[C@H]3COC(=O)[C@@H]23)OCO4)cc(OC)c1OC [Picropodophyllin] | survived the whole 5-day period | did not exhibit any obvious toxic signs | 6/6 | 6/6 | 6/6 | 6/6 | 6/6 | 36.7 | 11.0 | 36.3 | 9.7 | 35.0 | 3.2 | 34.8 | 1.8 | dose-dependently decreased | 0.9 | 9.4 | 0 | 0.9 | Lymphocytes in blood ([2]; individual mice, listed as PPP, 20 mg/kg): 3e+07 L⁻¹ and 1e+07 L⁻¹ and 0 L⁻¹; Effect on number of blood lymphocytes (in words) ([2]; mice): reduced the number of blood lymphocytes; Lymphocytes in blood ([3]; individual rats, listed as PPP, 20 mg/kg): 3.16e+09 L⁻¹ and 4.5e+08 L⁻¹ and 4.2e+09 L⁻¹ and 2.8e+09 L⁻¹ and 3.86e+09 L⁻¹; Decrease of blood lymphocytes ([3]; rats, versus controls): more than 50%; PI ANNEXIN V, percent of total cells ([6]; 2.5 μM): 10.5%; PI, percent of total cells ([6]; 2.5 μM): 0%; 3H-thymidine in cyclolignan-treated lymphocytes (% of 3H-thymidine in control lymphocytes) ([7]; AD patients): 7%; 3H-thymidine in cyclolignan-treated lymphocytes (% of 3H-thymidine in control lymphocytes) ([7]; CD (Crohn's disease) patients): 8%; 3H-thymidine in cyclolignan-treated lymphocytes (% of 3H-thymidine in control lymphocytes) [7, 8]: 10%; 3H-thymidine in cyclolignan-treated lymphocytes (% of 3H-thymidine in control lymphocytes) [7, 9]: 15%; 3H-thymidine in cyclolignan-treated lymphocytes (% of 3H-thymidine in control lymphocytes) [7, 10]: 13%; Proliferation of peripheral blood T lymphocytes, in words [7]: suppressed
COc1cc([C@@H]2c3cc4c(cc3C[C@H]3COC(=O)[C@@H]32)OCO4)cc(OC)c1OC [Deoxypodophyllotoxin, reference compound] | after 3 days they were all dead | serious toxic signs on the second day | 6/6 | 4/6 | 0/6 | 0/6 | 0/6 |  |  |  |  |  |  |  |  |  |  |  |  |  | 
COc1cc([C@@H]2c3cc4c(cc3C[C@H]3COC(=O)[C@H]32)OCO4)cc(OC)c1OC [Deoxypicropodophyllin] | survived the whole 5-day period | did not exhibit any obvious toxic signs | 6/6 | 6/6 | 6/6 | 6/6 | 6/6 | 36.7 | 13.2 | 37.1 | 7.5 | 34.7 | 4.1 | 32.8 | 0.9 | dose-dependently decreased | 1.3 | 9.2 | 0 | 1.5 | PI ANNEXIN V, percent of total cells ([6]; 2.5 μM): 9.3%; PI, percent of total cells ([6]; 2.5 μM): 0%; 3H-thymidine in cyclolignan-treated lymphocytes (% of 3H-thymidine in control lymphocytes) ([7]; AD (Alzheimer's disease) patients): 9%; 3H-thymidine in cyclolignan-treated lymphocytes (% of 3H-thymidine in control lymphocytes) ([7]; CD (Crohn's disease) patients): 8%; 3H-thymidine in cyclolignan-treated lymphocytes (% of 3H-thymidine in control lymphocytes) [7, 8]: 8%; 3H-thymidine in cyclolignan-treated lymphocytes (% of 3H-thymidine in control lymphocytes) [7, 9]: 7%; 3H-thymidine in cyclolignan-treated lymphocytes (% of 3H-thymidine in control lymphocytes) [7, 10]: 10%; Proliferation of peripheral blood T lymphocytes, in words [7]: suppressed
